Results published in PubChem BioAssay (NCI).
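Method: 48-hour compound exposure of cells in 96-well plates, five concentrations, linear interpolation of endpoints. GI50 marks 50% less growth. At the TGI there is no net growth.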

How the values were obtained:
Assay in all cases: NCI anticancer screen, dose series, 48 h
NCI-H23 lung = test system: NCI-H23 lung
SN12C renal = test system: SN12C renal
OVCAR-8 ovarian = test system: OVCAR-8 ovarian
EKVX NSCLC = test system: EKVX NSCLC
SF-539 CNS = test system: SF-539 CNS
U251 CNS = test system: U251 CNS
HL-60(TB) leukemia = test system: HL-60(TB) leukemia
HS 578T breast = test system: HS 578T breast
NCI-H460 lung = test system: NCI-H460 lung
MOLT-4 leukemia = test system: MOLT-4 leukemia
786-0 renal = test system: 786-0 renal
HCC-2998 colon = test system: HCC-2998 colon
CCRF-CEM leukemia = test system: CCRF-CEM leukemia
SK-MEL-28 melanoma = test system: SK-MEL-28 melanoma
HOP-92 NSCLC = test system: HOP-92 NSCLC
BT-549 breast = test system: BT-549 breast
MCF7 breast = test system: MCF7 breast
SK-OV-3 ovarian = test system: SK-OV-3 ovarian
MDA-MB-435 = test system: MDA-MB-435
RXF 393 renal = test system: RXF 393 renal
HCT-15 colon = test system: HCT-15 colon
NCI-H226 lung = test system: NCI-H226 lung
COLO 205 colon = test system: COLO 205 colon
LOX IMVI melanoma = test system: LOX IMVI melanoma
A498 renal = test system: A498 renal
MALME-3M melanoma = test system: MALME-3M melanoma
OVCAR-3 ovarian = test system: OVCAR-3 ovarian
HOP-62 NSCLC = test system: HOP-62 NSCLC
SW-620 colon = test system: SW-620 colon
M14 melanoma = test system: M14 melanoma
OVCAR-5 ovarian = test system: OVCAR-5 ovarian
CAKI-1 renal = test system: CAKI-1 renal
SF-295 CNS = test system: SF-295 CNS
MDA-MB-231 breast = test system: MDA-MB-231 breast
ACHN renal = test system: ACHN renal
PC-3 prostate = test system: PC-3 prostate
NCI/ADR-RES ovarian = test system: NCI/ADR-RES ovarian
SR leukemia = test system: SR leukemia
UACC-257 melanoma = test system: UACC-257 melanoma
NCI-H522 lung = test system: NCI-H522 lung
SNB-19 CNS = test system: SNB-19 CNS
HT29 colon = test system: HT29 colon
SF-268 CNS = test system: SF-268 CNS
HCT-116 colon = test system: HCT-116 colon
K-562 leukemia = test system: K-562 leukemia
UACC-62 melanoma = test system: UACC-62 melanoma
SK-MEL-5 melanoma = test system: SK-MEL-5 melanoma
SNB-75 CNS = test system: SNB-75 CNS
T-47D breast = test system: T-47D breast
OVCAR-4 ovarian = test system: OVCAR-4 ovarian
MDA-MB-468 breast = test system: MDA-MB-468 breast
UO-31 renal = test system: UO-31 renal
SK-MEL-2 melanoma = test system: SK-MEL-2 melanoma
DU-145 prostate = test system: DU-145 prostate
TK-10 renal = test system: TK-10 renal
RPMI-8226 leukemia = test system: RPMI-8226 leukemia
A549 NSCLC = test system: A549 NSCLC
KM12 colon = test system: KM12 colon
IGROV1 ovarian = test system: IGROV1 ovarian

CC(=O)c1ccc(Nc2nc(SCCC(C)C)nc(-c3ccc(F)cc3)c2C#N)cc1
GI50 (NCI-H23 lung): 5.86 µM
TGI (NCI-H23 lung): 39.6 µM
GI50 (SN12C renal): 24 µM
TGI (SN12C renal): > 100 µM
GI50 (OVCAR-8 ovarian): 5.77 µM
TGI (OVCAR-8 ovarian): 25.5 µM
GI50 (EKVX NSCLC): 3.05 µM
TGI (EKVX NSCLC): 18.8 µM
GI50 (SF-539 CNS): 3.69 µM
TGI (SF-539 CNS): 16 µM
GI50 (U251 CNS): 2.63 µM
TGI (U251 CNS): 7.87 µM
GI50 (HL-60(TB) leukemia): > 100 µM
TGI (HL-60(TB) leukemia): > 100 µM
GI50 (HS 578T breast): 3.06 µM
TGI (HS 578T breast): 10.1 µM
GI50 (NCI-H460 lung): 3.24 µM
TGI (NCI-H460 lung): 12.5 µM
GI50 (MOLT-4 leukemia): > 100 µM
TGI (MOLT-4 leukemia): > 100 µM
GI50 (786-0 renal): 3.09 µM
TGI (786-0 renal): 8.47 µM
GI50 (HCC-2998 colon): 21 µM
TGI (HCC-2998 colon): > 100 µM
GI50 (CCRF-CEM leukemia): > 100 µM
TGI (CCRF-CEM leukemia): > 100 µM
GI50 (SK-MEL-28 melanoma): 29.6 µM
TGI (SK-MEL-28 melanoma): > 100 µM
GI50 (HOP-92 NSCLC): 2.95 µM
TGI (HOP-92 NSCLC): 16.6 µM
GI50 (BT-549 breast): 12.7 µM
TGI (BT-549 breast): > 100 µM
GI50 (MCF7 breast): 7.51 µM
TGI (MCF7 breast): > 100 µM
GI50 (SK-OV-3 ovarian): 9.37 µM
TGI (SK-OV-3 ovarian): 26.2 µM
GI50 (MDA-MB-435): 12.9 µM
TGI (MDA-MB-435): > 100 µM
GI50 (RXF 393 renal): 3.53 µM
TGI (RXF 393 renal): 16.8 µM
GI50 (HCT-15 colon): 9.87 µM
TGI (HCT-15 colon): > 100 µM
GI50 (NCI-H226 lung): 3.82 µM
TGI (NCI-H226 lung): 22.4 µM
GI50 (COLO 205 colon): 7.42 µM
TGI (COLO 205 colon): > 100 µM
GI50 (LOX IMVI melanoma): 4.41 µM
TGI (LOX IMVI melanoma): 25.7 µM
GI50 (A498 renal): 2.84 µM
TGI (A498 renal): 8.8 µM
GI50 (MALME-3M melanoma): 32.6 µM
TGI (MALME-3M melanoma): > 100 µM
GI50 (OVCAR-3 ovarian): 13.3 µM
TGI (OVCAR-3 ovarian): 72.8 µM
GI50 (HOP-62 NSCLC): 3.99 µM
TGI (HOP-62 NSCLC): 16.3 µM
GI50 (SW-620 colon): 16.7 µM
TGI (SW-620 colon): > 100 µM
GI50 (M14 melanoma): 24.2 µM
TGI (M14 melanoma): > 100 µM
GI50 (OVCAR-5 ovarian): > 100 µM
TGI (OVCAR-5 ovarian): > 100 µM
GI50 (CAKI-1 renal): 3.75 µM
TGI (CAKI-1 renal): 23.5 µM
GI50 (SF-295 CNS): 2.18 µM
TGI (SF-295 CNS): 5.13 µM
GI50 (MDA-MB-231 breast): 2.94 µM
TGI (MDA-MB-231 breast): 10.2 µM
GI50 (ACHN renal): 2.07 µM
TGI (ACHN renal): 4.56 µM
GI50 (PC-3 prostate): 24.7 µM
TGI (PC-3 prostate): > 100 µM
GI50 (NCI/ADR-RES ovarian): 4.31 µM
TGI (NCI/ADR-RES ovarian): 27.5 µM
GI50 (SR leukemia): > 100 µM
TGI (SR leukemia): > 100 µM
GI50 (UACC-257 melanoma): > 100 µM
TGI (UACC-257 melanoma): > 100 µM
GI50 (NCI-H522 lung): 24 µM
TGI (NCI-H522 lung): > 100 µM
GI50 (SNB-19 CNS): 3.7 µM
TGI (SNB-19 CNS): 14.5 µM
GI50 (HT29 colon): 5.53 µM
TGI (HT29 colon): > 100 µM
GI50 (SF-268 CNS): 4.85 µM
TGI (SF-268 CNS): 97.4 µM
GI50 (HCT-116 colon): 3.51 µM
TGI (HCT-116 colon): 13.7 µM
GI50 (K-562 leukemia): 32.2 µM
TGI (K-562 leukemia): > 100 µM
GI50 (UACC-62 melanoma): 30.2 µM
TGI (UACC-62 melanoma): > 100 µM
GI50 (SK-MEL-5 melanoma): 13.8 µM
TGI (SK-MEL-5 melanoma): 53.4 µM
GI50 (SNB-75 CNS): 2.06 µM
TGI (SNB-75 CNS): 21.6 µM
GI50 (T-47D breast): 4.19 µM
TGI (T-47D breast): 74.5 µM
GI50 (OVCAR-4 ovarian): 7.2 µM
TGI (OVCAR-4 ovarian): 93.3 µM
GI50 (MDA-MB-468 breast): 10.2 µM
TGI (MDA-MB-468 breast): 50.3 µM
GI50 (UO-31 renal): 5.01 µM
TGI (UO-31 renal): 25.7 µM
GI50 (SK-MEL-2 melanoma): > 100 µM
TGI (SK-MEL-2 melanoma): > 100 µM
GI50 (DU-145 prostate): 10.7 µM
TGI (DU-145 prostate): > 100 µM
GI50 (TK-10 renal): 3.78 µM
TGI (TK-10 renal): 12.7 µM
GI50 (RPMI-8226 leukemia): > 100 µM
TGI (RPMI-8226 leukemia): > 100 µM
GI50 (A549 NSCLC): 3.85 µM
TGI (A549 NSCLC): > 100 µM
GI50 (KM12 colon): 45.5 µM
TGI (KM12 colon): > 100 µM
GI50 (IGROV1 ovarian): 10.6 µM
TGI (IGROV1 ovarian): 37.9 µM
